According to US8980249B2, “Agonists of growth hormone releasing hormone as effectors for survival and proliferation of pancreatic islets” (University of Miami, priority 2010, dated 2015):
Where “and” joins values, the source holds several entries; their conditions need not be identical. Identical values can stand only once. Entries after “also recorded” stand apart in the source; their conditions may differ. Square brackets hold non-standard residues; d marks the D form. Ends that are not written are not given here. * marks the point of attachment. Agmatine = N=C(N)NCCCCN*; Nle = CCCC[C@H](N)C(=O)O; Orn = NCCC[C@H](N)C(=O)O; Abu = CC[C@H](N)C(=O)O

Columns and labels:
[1] = test system: myocardial infarction (MI); conditions: in vivo; cited from earlier work
rat islets [2] = experiment: Islet membrane integrity, FDA/PI viability staining; format: cell-based; conditions: 72 hrs in culture, n=4
Description: Small aliquots of islets were transferred in phosphate-buffered saline (PBS) containing Petri dishes. Fluorescein diacetate (FDA) and propidium iodide (PI) were added to the samples at a final concentration of 0.5 and 75 μM, respectively. Using a fluorescence microscope, 100 islets were assessed for cell viability by estimating the percentage of viable cells (green) versus percentage of non-viable cells (red) within each islet. The percentage of viable cells was then calculated (33).

isolated rat islets [3] = experiment: Islet particle number and islet size (islet equivalents) in culture; format: cell-based; conditions: rat islets in culture with JI-36 10^−6 M
Description: Pancreatic islets were isolated from male Wistar rats according to guidelines established by the University of Dresden Institutional Animal Care and Use Committee. Animals were anesthetized by 3% isoflurane; digestion solution (Collagenase V, Sigma-Aldrich, St. Louis, Mo.) was injected in situ via the pancreatic common bile duct. Islets were purified by centrifugation on a discontinuous Ficoll gradient (Mediatech). Purified islets were maintained in culture media (CMRL 1066, Mediatech, USA) supplemented with 10% FBS at 37° C. in a 5% CO2 incubator. Volume and purity were determined by microscopic sizing after staining with dithizone (Sigma-Aldrich, St. Louis, Mo.).
Triplicate samples of 100 to 300 islet particles were stained with dithizone (Sigma-Aldrich, St. Louis, Mo.), which binds zinc ions present specifically in islet β-cells, and sized using an eyepiece reticle and inverted microscope (32). The term islet particle describes an individual islet independent of its size. All islet particles with a diameter >50 μm were divided into classes of 50 μm increments (i.e., 50-100, 100-150, 150-200, etc.) for calculation of islet equivalents (IEQ). Each diameter class was converted into the mean volume of 150-μm diameter islets by a relative conversion factor. These factors allow converting the total islet particle number from any preparation into IEQ. […]

[4] = test system: streptozotocin-induced diabetic NOD-SCID mice; experiment: Intraperitoneal glucose tolerance test after islet transplantation; format: in vivo
Description: Mice were fasted overnight (at least 6 hrs) before examination. A glucose solution was given at 3 g/kg BW i.p. and blood glucose was recorded before injection and 15, 30, 45, 60, 90 and 120 min following glucose injection. Non-transplanted mice were used as controls and tested concurrently.

INS-1 cells [5] = experiment: Cell apoptosis of INS-1 cells (activity of caspases 3 and 7); format: cell-based, rat
Description: (§1) Rat insulinoma cells (INS-1) were cultured in RPMI 1640 medium (PAA, Pasching, Austria) supplemented with 2 mM L-glutamine, 10% fetal bovine serum (FBS), 1 mM Na-pyruvate, 50 μM 2-mercaptoethanol and 100 U/ml penicillin-streptomycin (Gibco, Gaithersburg Md.) in a humidified 5% CO2/[…] atmosphere at 37° C. The culture medium was changed every other day. Cells were grown for 72 hrs prior to experimentation. GHRH agonist JI-36 (10^−6-10^−9 M) and GHRH antagonist MIA-602 ([…]) were used for 24-96 hrs, respectively.
(§2) INS-1 cells were grown for 72 hrs prior to experimentation; islets were collected immediately after the isolation procedure and each were divided into three treatment groups: (1) Culture media with vehicle (DMSO) served as control group, (2) Culture media containing GHRH agonist JI-36 (10^−6 M), (3) culture media with JI-36 plus GHRH antagonist MIA-602 (10^−6 M). Media change and addition of the analogues was performed after 24 hrs and 48 hrs in islet cultures and every other day in INS-1 cell cultures.

INS-1 cells [6] = experiment: Cell proliferation of INS-1 insulinoma cells; format: cell-based, rat
Description: as §1, §2

[7] = test system: streptozotocin-induced diabetic NOD-SCID mice; experiment: Transplantation of pretreated rat islets beneath the kidney capsule of diabetic mice; format: in vivo
Description: NOD-SCID mice (MTZ breed) with induced diabetes were used as islet recipients following guidelines established by the University of Dresden Institutional Animal Care and Use Committee. Diabetes was induced by a single intraperitoneal injection of 180 mg/kg streptozotocin (Sigma-Aldrich, St. Louis, Mo.). Serum glucose was then measured daily using an Ascensia Elite glucometer (Bayer, Burr Ridge, Ill.). Mice were considered diabetic if non-fasting blood glucose (BG) was >350 mg/dL for two or more consecutive days. Rat islet preparations were used for transplantation. Islets from each preparation were divided into two groups, and JI-36 (10^−6 M) or vehicle (DMSO) was added to the culture media. Islets were cultured for 48 hrs prior to transplantation. After culture, samples of 300 IEQ were washed in transplant media (Ringer acetate with 5% glucose and 10% FBS), and transplanted to beneath the left kidney capsule. The animal experiments and housing were in accordance with institutional guidelines and German animal regulations.
The non-fasting blood glucose levels were measured daily during the first week and twice a week thereafter. On day 25, mice were subjected to an intraperitoneal glucose tolerance test (IPGTT). Two days later, grafts were removed. This led to a recurrence of the diabetic state. This proves that restoration and maintenance of normoglycemia was due to islet graft function.
On follow-up, sustained non-fasting blood glucose levels of ≦10 mM (≦180 mg/dl) were defined as “cure”, 10 to 18 mM (180 to 320 mg/dl) as “partial function” of transplanted islets, and levels above 18 mM (>320 mg/dl) as “graft failure”.

isolated rat islets [8] = experiment: Immunostaining of islets for insulin and Ki-67; format: cell-based; conditions: 72 hrs in culture with JI-36
rat islets [9] = experiment: Static glucose-stimulated insulin secretion; format: cell-based
Description: For static insulin secretion in response to glucose challenge, islets were transferred into Petri dishes containing oxygenated Krebs-Ringer bicarbonate buffer (KRB, 137 mM NaCl, 4.7 mM KCl, 1.2 mM KH2PO4, 1.2 mM MgSO4-7H2O, 2.5 mM CaCl2-2H2O, 25 mM NaHCO3, 0.25% BSA) and pre-incubated in 3.3 mM glucose at 37° C. (5% CO2) for 30 min. Groups of 8-10 islets from the equilibration cultures were transferred to fresh oxygen-saturated media containing either 3.3 or 16.7 mM glucose and then incubated an additional 60 min in a 37° C. water bath with gentle shaking. Secreted insulin in the media was measured by ELISA (Millipore, Billerica, Mass.) and values normalized to extracted islet DNA (Quant-iT™ Picogreen, Invitrogen).

INS-1 cells [10] = experiment: Ultrastructural analysis of INS-1 cells; format: cell-based, rat; conditions: JI-36 10^−6 M
Description: as §2

cardiomyocytes = conditions: in vitro; cited from earlier work
rat hearts = conditions: cited from earlier work

(Dat^1, Gln^8, Orn^12,21, Abu^15, Nle^27, Asp^28, Agm^29)hGH-RH(1-29) [JI-38]
cardiac effect following myocardial infarction [1]: favorable cardiac effect, attenuating infarct size

(Dat^1, Thr^8, Orn^12,21, Abu^15, Nle^27, Asp^28, Agm^29)hGH-RH(1-29) ([Dat]ADAIFTTSYR[Orn]VL[Abu]QLSAR[Orn]LLQDI[Nle]D[Agmatine]) [JI-36, synthetic GHRH agonist]
islet viability (rat islets [2]): 96±3.3%
islet equivalents (IEQ/IP ratio, islet size) versus control (isolated rat islets [3]; 24-72 hrs): increased islet size
number of islet particles over time versus control (isolated rat islets [3]; up to 72 hrs): no relevant change; also recorded: no difference between treatment group and control
time to revert initial hyperglycemia to normal ranges in IPGTT ([4]; day 25): ≤ 2 h
response in IPGTT ([4]; day 25, glucose 3 g/kg i.p.): comparable to that of normal healthy mice
degree of cell apoptosis (in words) (INS-1 cells [5]; 10^−6-10^−9 M, 24-96 hrs, INS-1 cells): significant decrease; also recorded: reduction
reduction of apoptosis (activity of caspases 3 and 7) (INS-1 cells [5]; JI-36 10^−6 M, 72 hrs, INS-1 cells): 20%
time of maximal anti-apoptotic effect (INS-1 cells [5]; incubation 24-96 hrs): 72 h
most effective concentration for anti-apoptotic effect (INS-1 cells [5]; tested 10^−6-10^−9 M, INS-1 cells): 10^−6 M
cell proliferation rates (in words) (INS-1 cells [6]; 10^−6-10^−9 M, 24-96 hrs): significant and dose-dependent increase
increase in cell proliferation compared to control (INS-1 cells [6]; JI-36 10^−6 M, 72 hrs): 50%
most effective concentration for cell proliferation (INS-1 cells [6]; tested 10^−6-10^−9 M): 10^−6 M
animals cured (stable normoglycemia) ([7]; 300 IEQ islets pretreated with JI-36 10^−6 M 48 hrs, day 25): 5 of 6 and 5 out of 6
graft integration (insulin immunostaining) ([7]; day 27 after transplantation): stable graft integration
blood glucose control after transplantation versus untreated islets (in words) ([7]; islets pretreated with JI-36): consistently performed better; also recorded: rapid and persistent recovery from diabetes; also recorded: earlier and more consistently
animals with partial graft function ([7]; islets pretreated with JI-36, day 25): one
insulin and Ki-67 staining (proliferation in beta cells) (isolated rat islets [8]): co-localization of the two markers
insulin release at basal glucose versus control (in words) (rat islets [9]; 3.3 mM glucose): slight increase; also recorded: did not cause a relevant difference
insulin release at basal glucose (rat islets [9]; 3.3 mM glucose, 1 hr, after 48 hrs exposure, n=5): 2.3 ± 0.5 ng/mL
insulin release upon glucose stimulation compared to control (in words) (rat islets [9]; 16.7 mM glucose): more than double; also recorded: increased
insulin release at high glucose (rat islets [9]; 16.7 mM glucose, after 48 hrs exposure, n=5): 8.2 ± 0.2 ng/mL
insulin release at high glucose relative to basal glucose (rat islets [9]; 16.7 mM vs 3.3 mM glucose): 3.6 fold
ultrastructural changes / metabolic state (INS-1 cells [10]): more active metabolic state; also recorded: metabolic active stimulation state with increased cytoplasm

rat GHRH: rat growth hormone-releasing hormone, cited cardioprotection study (HADAIFTSSYRRILGQLYARKLLHEIMNRQQGERNQEQRSRFN; Somatoliberin; UniProt P09916 31-73, looked up)
survival of cardiomyocytes (cardiomyocytes): promoted survival
protection from ischemia-reperfusion injury (rat hearts): protected
